Consider 71 compounds from patent US20120165304A1, “6,7,8,9-Tetrahydro-5H-1,4,7,10a-tetraaza-cyclohept[f]indene derivatives, pharmaceutical compositions containing these compounds, their use and processes for preparing them” (BOEHRINGER INGELHEIM INTERNATIONAL GMBH, priority 2008, published 2012).

Broadly, the EC50 is the concentration needed to bring the measured effect to its halfway point. High values mean a need for much substance, low ones an effect from little substance.

Chain of human 5-HT2C receptor (P28335 33-458 I156V/N158S/I160V limits assumed): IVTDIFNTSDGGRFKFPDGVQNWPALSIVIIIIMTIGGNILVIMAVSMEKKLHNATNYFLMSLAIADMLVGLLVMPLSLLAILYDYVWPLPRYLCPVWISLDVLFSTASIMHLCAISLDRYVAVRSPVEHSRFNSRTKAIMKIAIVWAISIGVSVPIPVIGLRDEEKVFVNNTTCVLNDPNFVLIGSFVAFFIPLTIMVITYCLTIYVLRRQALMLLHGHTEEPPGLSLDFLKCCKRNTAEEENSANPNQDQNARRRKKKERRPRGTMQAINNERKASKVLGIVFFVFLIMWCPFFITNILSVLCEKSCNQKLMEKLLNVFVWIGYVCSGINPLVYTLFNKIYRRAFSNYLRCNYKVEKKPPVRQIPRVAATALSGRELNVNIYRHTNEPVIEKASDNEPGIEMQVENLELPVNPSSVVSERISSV

This test has as its target human 5-HT2C receptor (Homo sapiens, UniProt P28335, I156V/I160V/N158S). In words: cell-based.
For `O=C(NCc1ccccc1)C1CCCN(c2c3c(nc4ccnn24)CCNCC3)C1` (centres unmarked) [Example 1.22], the EC50 was determined as 1410 nM. The figure for `CC(C)C1CCN(C(=O)C2CN(c3c4c(nc5ccnn35)CCN(C)CC4)C2)CC1` [Example 36.20] is 63 nM; for `CCN(C(=O)C1CN(c2c3c(nc4ccnn24)CCNCC3)C1)C(C)C` [Example 31.11] it is 306 nM.

As for `Cc1ccc(CN(C)C(=O)C2CN(c3c4c(nc5ccnn35)CCNCC4)C2)s1` [Example 31.24], the midpoint of the response, the EC50, lay at 53 nM. `CCN1CCCC1CNC(=O)C1CN(c2c3c(nc4ccnn24)CCN(C)CC3)C1` (centres unmarked) [Example 36.4]: the EC50 is 252 nM. The figure for `O=C(C1CN(c2c3c(nc4ccnn24)CCNCC3)C1)N1CCCCC1` [Example 31.15] is 342 nM; for `Cn1c(C2CN(c3c4c(nc5ccnn35)CCNCC4)C2)nc2cc(F)ccc21` [Example 34.38] it is 290 nM. `COc1ccc(CN(C)C(=O)C2CN(c3c4c(nc5ccnn35)CCNCC4)C2)cc1` [Example 31.26] showed an EC50 of 29 nM.

Compound `C#CCN1CCN(C(=O)C2CN(c3c4c(nc5ccnn35)CCNCC4)C2)CC1` [Example 37.39] gave a concentration for a half-maximal effect (EC50) of 7 nM. The figure for `C#CCCNC(=O)C1CN(c2c3c(nc4ccnn24)CCNCC3)C1` [Example 37.48] is 141 nM; for `Cn1c(C2CN(c3c4c(nc5ccnn35)CCNCC4)C2)nc2ccc(F)cc21` [Example 34.4] it is 24 nM.

`Fc1cc(OCC2CN(c3c4c(nc5ccnn35)CCNCC4)C2)ccc1Cl` [Example 15.13] had an EC50 of 28 nM.

For the compound `CC(C)(C)C1CCN(C(=O)C2CN(c3c4c(nc5ccnn35)CCNCC4)C2)CC1` [Example 31.121], the EC50 was found to be 22 nM. The figure for `O=C(NC1CCC(F)(F)CC1)C1CN(c2c3c(nc4ccnn24)CCNCC3)C1` [Example 37.47] is 126 nM; for `CN1CCC(CNC(=O)C2CN(c3c4c(nc5ccnn35)CCNCC4)C2)CC1` [Example 37.89] it is 19 nM. `CN1CCc2nc3ccnn3c(N3CC(C(=O)N4CCCN(C)CC4)C3)c2CC1` [Example 36.12] showed an EC50 of 73 nM. As to `Cc1ccc(OC2CN(c3c4c(nc5ccnn35)CCNCC4)C2)cn1` [Example 35.52], the EC50 is 147 nM. The compound `CC(=O)N(C)C1CCN(C(=O)C2CN(c3c4c(nc5ccnn35)CCN(C)CC4)C2)CC1` [Example 36.31] yielded an EC50 of 187 nM. The figure for `c1ccc(CCc2cnn3c(N4CCC4)c4c(nc23)CCNCC4)nc1` [Example 6, 10-Azetidin-1-yl-3-(2-pyridin-2-yl-ethyl)-6,7,8,9-tetrahydro-5H-1,4,7,10a-tetraaza-cyclohepta[f]indene] is 156 nM; for `CN1CCc2nc3ccnn3c(N3CC(C(=O)NC4CC5CCC(C4)N5C)C3)c2CC1` (centres unmarked) [Example 36.10] it is 374 nM; for `Cn1c(C2CN(c3c4c(nc5ccnn35)CCNCC4)C2)nc2ccc(Cl)cc21` [Example 34.6] it is 65 nM. As to `CN(Cc1cc(Cl)cc(Cl)c1)C(=O)C1CN(c2c3c(nc4ccnn24)CCNCC3)C1` [Example 31.165], the EC50 was determined as 72 nM.

On to `CN1CCc2nc3ccnn3c(N3CC(C(=O)N4CCC(C#N)C4)C3)c2CC1` (centres unmarked) [Example 36.44], for which the EC50 was 214 nM.

Compound `Cc1ccc2c(c1)N(C(=O)C1CN(c3c4c(nc5ccnn35)CCNCC4)C1)CC2` [Example 31.176] displayed an EC50 of 95 nM.

As for `Brc1cnn2c(N3CC(Oc4ccccc4)C3)c3c(nc12)CCNCC3` [Example 2.1], the EC50 was 7 nM. The figure for `Cc1cnn2c(N3CC(C(=O)N4CCCC(F)(F)C4)C3)c3c(nc12)CCNCC3` [Example 31.238] is 13 nM; for `CN1CCc2nc3ccnn3c(N3CC(C(=O)NCC4CCN(C)CC4)C3)c2CC1` [Example 36.3] it is 108 nM. The figure for `Cc1cc(C#N)cc(C)c1OC1CN(c2c3c(nc4ccnn24)CCNCC3)C1` [Example 35.15] is 20 nM; for `CC(=O)NC1CCN(C(=O)C2CN(c3c4c(nc5ccnn35)CCNCC4)C2)C1` (centres unmarked) [Example 37.27] it is 14 nM; for `CCc1cnn2c(N3CC(C(=O)N(C)C)C3)c3c(nc12)CCNCC3` [Example 26, 1-(3-Ethyl-6,7,8,9-tetrahydro-5H-1,4,7,10a-tetraaza-cyclohepta[f]inden-10-yl)-azetidine-3-carboxylic acid dimethylamide] it is 10 nM. As for `O=C(C1CN(c2c3c(nc4ccnn24)CCNCC3)C1)N1CCc2cccc(C(F)(F)F)c2C1` [Example 31.122], the figure is 33 nM; as for `Cc1cnn2c(N3CC(C(=O)N4CCc5cc(F)ccc54)C3)c3c(nc12)CCNCC3` [Example 31.245], 26 nM; as for `CCCCNC(=O)C1CN(c2c3c(nc4ccnn24)CCNCC3)C1` [Example 37.72], 91 nM. As for `Cc1ccc(C2CCN(C(=O)C3CN(c4c5c(nc6ccnn46)CCNCC5)C3)CC2)cc1` [Example 31.144], the EC50 worked out at 66 nM. As for `O=C(C1CN(c2c3c(nc4ccnn24)CCNCC3)C1)N1CC(Cc2ccccc2)C1` [Example 31.119], the figure is 82 nM; as for `COC1CN(c2c3c(nc4ccnn24)CCNCC3)C1` [Example 16.1], 82 nM; as for `CC1CN(C(=O)C2CN(c3c4c(nc5ccnn35)CCNCC4)C2)CC(C)N1` (centres unmarked) [Example 37.13], 1 nM. The compound `Cc1cccc(CN(C)C(=O)C2CN(c3c4c(nc5ccnn35)CCNCC4)C2)n1` [Example 31.208] came in with an EC50 of 62 nM.

In turn, `O=C(C1CN(c2c3c(nc4ccnn24)CCNCC3)C1)N1CCCCC1c1cccnc1` (centres unmarked) [Example 31.187] gave an EC50 of 1010 nM. As for `Cc1cc(Cl)ccc1OC1CN(c2c3c(nc4ccnn24)CCNCC3)C1` [Example 35.20], the figure is 326 nM. For `O=C(C1CN(c2c3c(nc4ccnn24)CCNCC3)C1)N1CCC(O)(c2cccc(C(F)(F)F)c2)CC1` [Example 31.226], the EC50 amounted to 74 nM. As for `Fc1ccc(OC2CN(c3c4c(nc5ccnn35)CCNCC4)C2)cc1` [Example 1.6], the EC50 was found to be 23 nM. As for `NC1CCN(C(=O)C2CN(c3c4c(nc5ccnn35)CCNCC4)C2)C1` (centres unmarked) [Example 37.16], the figure is 5 nM; as for `Cc1ccc(Cl)c(OC2CN(c3c4c(nc5ccnn35)CCNCC4)C2)c1` [Example 35.29], 114 nM. The compound `c1ccc(CC2CN(c3c4c(nc5ccnn35)CCNCC4)C2)nc1` [Example 18, 10-(3-Pyridin-2-ylmethyl-azetidin-1-yl)-6,7,8,9-tetrahydro-5H-1,4,7,10a-tetraaza-cyclohepta[f]indene] registered an EC50 of 451 nM. The figure for `CC1(C(=O)N2CCC(C(F)(F)F)CC2)CN(c2c3c(nc4ccnn24)CCNCC3)C1` [Example 32.2] is 8290 nM; for `CN1CCc2nc3ccnn3c(N3CC(C(=O)N4CCC5(CC5)C4)C3)c2CC1` [Example 36.37] it is 61 nM; for `CCOc1ccc(OC2CN(c3c4c(nc5ccnn35)CCNCC4)C2)cc1` [Example 35.53] it is 324 nM. As for `O=C(C1CN(c2c3c(nc4ccnn24)CCNCC3)C1)N1CCC(c2ccccc2)C1` (centres unmarked) [Example 31.98], the figure is 45 nM. The figure for `CN1CCc2nc3ccnn3c(N3CC(C(=O)N4CCC(F)(F)CC4)C3)c2CC1` [Example 36.23] is 124 nM; for `O=C(NC1CCC1)C1CN(c2c3c(nc4ccnn24)CCNCC3)C1` [Example 37.92] it is 161 nM. In the case of `CO[C@@H]1CCN(C(=O)C2CN(c3c4c(nc5ccnn35)CCN(C)CC4)C2)C1` [Example 36.38], the EC50 amounted to 86 nM. As for `c1cc2nc3c(c(N4CCCC4)n2n1)CCNCC3` [Example 7.1], the figure is 764 nM. With `CN(CCC1CCCCC1)C(=O)C1CN(c2c3c(nc4ccnn24)CCNCC3)C1` [Example 31.84], the EC50 amounted to 126 nM. Compound `NC1CCN(C(=O)C2CN(c3c4c(nc5ccnn35)CCNCC4)C2)CC1` [Example 37.42] yielded an EC50 of 2 nM. The compound `O=C(C1CN(c2c3c(nc4ccnn24)CCNCC3)C1)N1CCN(C2CCCC2)CC1` [Example 37.11] showed an EC50 of 2 nM. The figure for `O=C(NCC1CCOC1)C1CN(c2c3c(nc4ccnn24)CCNCC3)C1` (centres unmarked) [Example 37.61] is 64 nM. The figure for `CN(Cc1ccc(Cl)c(Cl)c1)C(=O)C1CN(c2c3c(nc4ccnn24)CCNCC3)C1` [Example 31.81] is 33 nM. The figure for `CN(C(=O)C1CN(c2c3c(nc4ccnn24)CCNCC3)C1)c1ccccc1` [Example 31.5] is 742 nM; for `CN(C(=O)C1CN(c2c3c(nc4ccnn24)CCNCC3)C1)C1CCCc2ccccc21` (centres unmarked) [Example 31.171] it is 967 nM. For `O=C(C1CN(c2c3c(nc4ccnn24)CCNCC3)C1)N1CCC(F)CC1` [Example 31.206], the concentration giving a half-maximal response (EC50) came out at 146 nM.

Take `CN(Cc1cccc(C(F)(F)F)c1)C(=O)C1CN(c2c3c(nc4ccnn24)CCNCC3)C1` [Example 31.149]: the EC50 stood at 45 nM. Compound `Cc1cnn2c(N3CC(C(=O)N4CCc5ccc(C(F)(F)F)cc54)C3)c3c(nc12)CCNCC3` [Example 31.246] registered an EC50 of 266 nM. Regarding `CC(=O)N1CCN(C(=O)C2CN(c3c4c(nc5ccnn35)CCNCC4)C2)CC1` [Example 37.36], the EC50 stood at 10 nM.

`O=C(C1CN(c2c3c(nc4ccnn24)CCNCC3)C1)N1CC[C@@H](F)C1` [Example 31.205]: it took 116 nM to reach a half-maximal effect (EC50). `Cc1cnn2c(N3CC(C(=O)N(C)Cc4ccc(OC(F)F)cc4)C3)c3c(nc12)CCNCC3` [Example 31.249] showed an EC50 of 16 nM.

In turn, `C=C1CCN(C(=O)C2CN(c3c4c(nc5ccnn35)CCNCC4)C2)CC1` [Example 31.229] had an EC50 of 108 nM. The figure for `c1ccc2sc(C3CN(c4c5c(nc6ccnn46)CCNCC5)C3)nc2c1` [Example 12, 10-(3-Benzothiazol-2-yl-azetidin-1-yl)-6,7,8,9-tetrahydro-5H-1,4,7,10a-tetraaza-cyclohepta[f]indene] is 253 nM; for `Cc1ccc(OC2CN(c3c4c(nc5ccnn35)CCNCC4)C2)c(C)c1` [Example 35.6] it is 266 nM. The figure for `CC#CCNC(=O)C1CN(c2c3c(nc4ccnn24)CCNCC3)C1` [Example 37.105] is 139 nM; for `CN1CCC2(CCN(C(=O)C3CN(c4c5c(nc6ccnn46)CCNCC5)C3)CC2)C1=O` [Example 31.151] it is 319 nM.
